Measurements reported in US4705777A, “Cationic oligopeptides having microbicidal activity” (priority 1985, dated 1987).

Experiments:
[1] = system: Staphylococcus aureus 566; experiment: Antibacterial activity of rabbit granulocyte peptides (Table III), S. aureus 566; format: cell-based; settings: 50 μg/ml, 20 min, 37° C., 10 mM sodium phosphate buffer pH 7.4
Protocol: (§1) The procedure parallels that reported in Lehrer et al., Infection and Immunity (1983) 42:10-14. […] The subculture was grown at 37° C. for 4 h with shaking to provide mid-logarithmic phase organisms that were washed twice with buffer by centrifugation (2000×g, 10 min), and then quantitated spectrophotometrically at 620 nm, with reference to previously established CFU/Optical Density relationships. Bacteria were suspended and experiments were performed in 10 mM sodium phosphate buffer, pH 7.4. In some experiments, buffers were supplemented with 0.14 M NaCl ("high" ionic strength). […] In some experiments, 10 mM phosphate buffer with a pH of 5.8 and conductivity of 1.36 mMHO was used. Peptide "stock solutions" were prepared at 500 μg/ml (microbiuret assay) in 0.01% acetic acid, and stored at -20° C. Typically, incubation mixtures contained 1×10^5 bacterial CFU and 5 μg of peptide in 100 μl of buffer. After incubation for 20 min at 37° C., 900 μl of the same buffer was added, and two additional serial tenfold dilutions were made with that buffer. Duplicate 100 μl aliquots from the three serial dilutions were spread over appropriate nutrient agar plates and incubated for 24-72 h to insure full colony development. Killing of microorganisms was expressed as the logarithm10 No /N, where No represented the initial colony count and N represented the colony count after incubation with peptide. There was no significant alteration in colony count when any of the test organisms were exposed to peptide-free buffer for 20 min.

[2] = system: Staphylococcus aureus 502A; experiment: Antibacterial activity of rabbit granulocyte peptides (Table III), S. aureus 502A; format: cell-based; settings: 50 μg/ml, 20 min, 37° C., 10 mM sodium phosphate buffer pH 7.4
Protocol: as §1

[3] = system: Staphylococcus aureus J.F.; experiment: Antibacterial activity of rabbit granulocyte peptides (Table III), S. aureus J.F.; format: cell-based; settings: 50 μg/ml, 20 min, 37° C., 10 mM sodium phosphate buffer pH 7.4
Protocol: as §1

[4] = system: Staphylococcus epidermidis UCLA-622; experiment: Antibacterial activity of rabbit granulocyte peptides (Table III), S. epidermidis; format: cell-based; settings: 50 μg/ml, 20 min, 37° C., 10 mM sodium phosphate buffer pH 7.4
Protocol: as §1

[5] = system: Streptococcus pneumoniae Type III; experiment: Antibacterial activity of rabbit granulocyte peptides (Table III), S. pneumoniae; format: cell-based; settings: 50 μg/ml, 20 min, 37° C., 10 mM sodium phosphate buffer pH 7.4
Protocol: as §1

[6] = system: Streptococcus agalactiae Type-I-A; experiment: Antibacterial activity of rabbit granulocyte peptides (Table III), S. agalactiae Type-I-A; format: cell-based; settings: 50 μg/ml, 20 min; for Bactericidal activity log10 No /N, Streptococcus agalactiae Type 1A, pH 5.8: 10 mM phosphate buffer pH 5.8; for Bactericidal activity log10 No /N, Streptococcus agalactiae Type-I-A: 37° C., 10 mM sodium phosphate buffer pH 7.4; for Bactericidal activity log10 No /N, Streptococcus agalactiae Type 1A, "High" ionic strength: buffer pH 7.4 supplemented with 0.14 M NaCl
Protocol: as §1

[7] = system: Streptococcus agalactiae Type IIIU; experiment: Antibacterial activity of rabbit granulocyte peptides (Table III), S. agalactiae Type IIIU; format: cell-based; settings: 50 μg/ml, 20 min, 37° C., 10 mM sodium phosphate buffer pH 7.4
Protocol: as §1

[8] = system: Listeria monocytogenes 450; experiment: Antibacterial activity of rabbit granulocyte peptides (Table III), L. monocytogenes; format: cell-based; settings: 50 μg/ml, 20 min; for Bactericidal activity log10 No /N, Listeria monocytogenes 450, pH 5.8: 10 mM phosphate buffer pH 5.8; for Bactericidal activity log10 No /N, Listeria monocytogenes 450: 37° C., 10 mM sodium phosphate buffer pH 7.4; for Bactericidal activity log10 No /N, Listeria monocytogenes 450, "High" ionic strength: buffer pH 7.4 supplemented with 0.14 M NaCl
Protocol: as §1

[9] = system: Pseudomonas aeruginosa PAO 579; experiment: Antibacterial activity of rabbit granulocyte peptides (Table III), P. aeruginosa; format: cell-based; settings: 50 μg/ml, 20 min; for Bactericidal activity log10 No /N, Pseudomonas aeruginosa PAO 579, pH 5.8: 10 mM phosphate buffer pH 5.8; for Bactericidal activity log10 No /N, Pseudomonas aeruginosa PAO 579: 37° C., 10 mM sodium phosphate buffer pH 7.4; for Bactericidal activity log10 No /N, Pseudomonas aeruginosa PAO 579, "High" ionic strength: buffer pH 7.4 supplemented with 0.14 M NaCl
Protocol: as §1

[10] = system: Escherichia coli ATCC 29648; experiment: Antibacterial activity of rabbit granulocyte peptides (Table III), E. coli; format: cell-based; settings: 50 μg/ml, 20 min, 37° C., 10 mM sodium phosphate buffer pH 7.4
Protocol: as §1

[11] = system: Klebsiella pneumoniae ATCC 13883; experiment: Antibacterial activity of rabbit granulocyte peptides (Table III), K. pneumoniae; format: cell-based; settings: 50 μg/ml, 20 min; for Bactericidal activity log10 No /N, Klebsiella pneumoniae ATCC 13883, pH 5.8: 10 mM phosphate buffer pH 5.8; for Bactericidal activity log10 No /N, Klebsiella pneumoniae ATCC 13883: 37° C., 10 mM sodium phosphate buffer pH 7.4; for Bactericidal activity log10 No /N, Klebsiella pneumoniae ATCC 13883, "High" ionic strength: buffer pH 7.4 supplemented with 0.14 M NaCl
Protocol: as §1

Serratia marcescens = experiment: Antibacterial activity of rabbit granulocyte peptides (Table III), S. marcescens; format: cell-based; settings: 50 μg/ml, 20 min, 37° C., 10 mM sodium phosphate buffer pH 7.4
Protocol: as §1

[12] = system: Hemophilus influenzae Type 3A; experiment: Antibacterial activity of rabbit granulocyte peptides (Table III), H. influenzae; format: cell-based; settings: 50 μg/ml, 20 min, 37° C., 10 mM sodium phosphate buffer pH 7.4
Protocol: as §1

[13] = system: Bordetella bronchiseptica UCLA-342; experiment: Antibacterial activity of rabbit granulocyte peptides (Table III), B. bronchiseptica; format: cell-based; settings: 50 μg/ml, 20 min, 37° C., 10 mM sodium phosphate buffer pH 7.4
Protocol: as §1

S. albus = experiment: Antibacterial action, % killing (Table II), S. albus; format: cell-based, Staphylococcus albus; settings: 50 μg/ml peptide, 10^7 bacterial cells/ml, 20 min, 37°
Protocol: (§2) To test antibacterial action of the polypeptides, the following protocol was employed. Various species at 10^7 bacterial cells/ml are incubated for 20 min at 37° with 50 μg/ml of the candidate peptide. Colony counts (viable organisms) are made at the outset of the incubation--beforeaddition of the candidate peptide--and after 20 min of incubation with the candidate peptide.

S. aureus 502A = experiment: Antibacterial action, % killing (Table II), S. aureus 502A; format: cell-based, Staphylococcus aureus; settings: 50 μg/ml peptide, 10^7 bacterial cells/ml, 20 min, 37°
Protocol: as §2

L. monocytogenes = experiment: Antibacterial action, % killing (Table II), L. monocytogenes; format: cell-based, Listeria monocytogenes; settings: 50 μg/ml peptide, 10^7 bacterial cells/ml, 20 min, 37°
Protocol: as §2

E. coli = experiment: Antibacterial action, % killing (Table II), E. coli; format: cell-based, Escherichia coli; settings: 50 μg/ml peptide, 10^7 bacterial cells/ml, 20 min, 37°
Protocol: as §2

Ps. aeruginosa = experiment: Antibacterial action, % killing (Table II), Ps. aeruginosa; format: cell-based, Pseudomonas aeruginosa; settings: 50 μg/ml peptide, 10^7 bacterial cells/ml, 20 min, 37°
Protocol: as §2

H. influenzae = experiment: Antibacterial action, % killing (Table II), H. influenzae; format: cell-based, Haemophilus influenzae; settings: 50 μg/ml peptide, 10^7 bacterial cells/ml, 20 min, 37°
Protocol: as §2

Substance | Bactericidal activity log10 No /N, Staphylococcus aureus 566 [1] [log10] | Bactericidal activity log10 No /N, Staphylococcus aureus 502A [2] [log10] | Bactericidal activity log10 No /N, Staphylococcus aureus J.F. [3] [log10] | Bactericidal activity log10 No /N, Staphylococcus epidermidis UCLA-622 [4] [log10] | Bactericidal activity log10 No /N, Streptococcus pneumoniae Type III [5] [log10] | Bactericidal activity log10 No /N, Streptococcus agalactiae Type 1A, pH 5.8 [6] [log10] | Bactericidal activity log10 No /N, Streptococcus agalactiae Type-I-A [6] [log10] | Bactericidal activity log10 No /N, Streptococcus agalactiae Type 1A, "High" ionic strength [6] [log10] | Bactericidal activity log10 No /N, Streptococcus agalactiae Type IIIU [7] [log10] | Bactericidal activity log10 No /N, Listeria monocytogenes 450, pH 5.8 [8] [log10] | Bactericidal activity log10 No /N, Listeria monocytogenes 450 [8] [log10] | Bactericidal activity log10 No /N, Listeria monocytogenes 450, "High" ionic strength [8] [log10] | Bactericidal activity log10 No /N, Pseudomonas aeruginosa PAO 579, pH 5.8 [9] [log10] | Bactericidal activity log10 No /N, Pseudomonas aeruginosa PAO 579 [9] [log10] | Bactericidal activity log10 No /N, Pseudomonas aeruginosa PAO 579, "High" ionic strength [9] [log10] | Bactericidal activity log10 No /N, Escherichia coli ATCC 29648 [10] [log10] | Bactericidal activity log10 No /N, Klebsiella pneumoniae ATCC 13883, pH 5.8 [11] [log10] | Bactericidal activity log10 No /N, Klebsiella pneumoniae ATCC 13883 [11] [log10] | Bactericidal activity log10 No /N, Klebsiella pneumoniae ATCC 13883, "High" ionic strength [11] [log10] | Bactericidal activity log10 No /N, Serratia marcescens (Serratia marcescens) [log10] | also measured
val phe cys thr cys arg gly phe leu cys gly ser gly glu arg ala ser gly ser cys thr ile asn gly val arg his thr leu cys cys arg [NP-5] | 0.4 | 0.2 | 0.1 | 0.4 | 1.9 | 0.0 | 0.5 | 0.0 | 0.4 | 0.1 | 0.5 | 0.2 | 0.1 | 0.7 | 0.0 | 0.2 | 0.1 | 1.2 | 0.0 | 1.2 | Bactericidal activity log10 No /N, Hemophilus influenzae Type 3A [12]: 1.2 log10; Bactericidal activity log10 No /N, Bordetella bronchiseptica UCLA-342 [13]: 0.0 log10
val ser cys thr cys arg arg phe ser cys gly phe gly glu arg ala ser gly ser cys thr val asn gly val arg his thr leu cys cys arg arg [NP-4] | 0.2 | 0.1 | 0.1 | 0.2 | 4.3 | 0.0 | 0.1 | 0.0 | 0.2 | 0.0 | 0.1 | 0.0 | 0.0 | 0.2 | 0.0 | 0.1 | 0.3 | 0.2 | 0.0 | 1.3 | Bactericidal activity log10 No /N, Hemophilus influenzae Type 3A [12]: 1.3 log10; Bactericidal activity log10 No /N, Bordetella bronchiseptica UCLA-342 [13]: 0.1 log10
val val cys ala cys arg arg ala leu cys leu pro arg glu arg arg ala gly phe cys arg ile arg gly arg ile his pro leu cys cys arg arg [NP-1] | > 4.1 | 2.3 | 2.7 | > 4.1 | 3.8 | 0.1 | 2.3 | 0.0 | 3.9 | 0.2 | 2.1 | 0.1 | 0.3 | > 4.2 | 0.1 | 1.9 | 0.6 | 3.0 | 0.1 | 1.0 | % Killing, S. albus (S. albus): B (90-99% killing); % Killing, S. aureus 502A (S. aureus 502A): D (<50% killing); % Killing, L. monocytogenes (L. monocytogenes): A (>99% killing); % Killing, E. coli (E. coli): B (90-99% killing); % Killing, Ps. aeruginosa (Ps. aeruginosa): A (>99% killing); % Killing, H. influenzae (H. influenzae): A (>99% killing); Bactericidal activity log10 No /N, Hemophilus influenzae Type 3A [12]: > 1.1 log10; Bactericidal activity log10 No /N, Bordetella bronchiseptica UCLA-342 [13]: 0.1 log10
